Data published in ChEMBL document CHEMBL5244219, “Recent developments of quinolone-based derivatives and their activities against Escherichia coli” (Eur J Med Chem, 2018).
In brackets after ≈: the same amount, converted by molar mass.

Columns and labels:
Escherichia coli [1] = assay: Antibacterial activity against drug-sensitive Escherichia coli assessed as bacterial growth inhibition; assay type: functional
Escherichia coli [2] = assay: Antibacterial activity against Escherichia coli assessed as zone of inhibition at 5 ug per disc; assay type: functional; settings: read-out: DIZ
Escherichia coli [3] = assay: Antibacterial activity against Escherichia coli KC-14 infected in po dosed mouse assessed as bacterial growth inhibition; assay type: functional
Escherichia coli [4] = assay: Antibacterial activity against Escherichia coli KC-14 assessed as bacterial growth inhibition; assay type: functional
Escherichia coli [5] = assay: Antibacterial activity against Escherichia coli K-12 C600 assessed as bacterial growth inhibition; assay type: functional
Escherichia coli [6] = assay: Antibacterial activity against Escherichia coli 2010-05 assessed as bacterial growth inhibition measured after 24 hrs by agar dilution method; assay type: functional
Escherichia coli [7] = assay: Antibacterial activity against Escherichia coli 2010-29 assessed as bacterial growth inhibition measured after 24 hrs by agar dilution method; assay type: functional
Escherichia coli [8] = assay: Antibacterial activity against Escherichia coli assessed as bacterial growth inhibition by agar dilution method; assay type: functional
Escherichia coli [9] = assay: Antibacterial activity against clinical isolate Escherichia coli assessed as bacterial growth inhibition incubated for 24 hrs by agar dilution method; assay type: functional
Escherichia coli [10] = assay: Antibacterial activity against Escherichia coli ATCC 8739 assessed as bacterial growth inhibition by agar dilution method; assay type: functional
Escherichia coli [11] = assay: Antibacterial activity against Escherichia coli ATCC 700603 assessed as bacterial growth inhibition by agar dilution method; assay type: functional
Escherichia coli [12] = assay: Potency index, ratio of norfloxacin MIC to compound IC50 for antibacterial activity against Escherichia coli ATCC 700603; assay type: functional
Escherichia coli [13] = assay: Potency index, ratio of ciprofloxacin MIC to compound IC50 for antibacterial activity against Escherichia coli ATCC 700603; assay type: functional
Escherichia coli [14] = assay: Potency index, ratio of clinafloxacin MIC to compound IC50 for antibacterial activity against Escherichia coli ATCC 700603; assay type: functional
Escherichia coli [15] = assay: Potency index, ratio of chloromycin MIC to compound IC50 for antibacterial activity against Escherichia coli ATCC 700603; assay type: functional
Escherichia coli [16] = assay: Antibacterial activity against Escherichia coli NCTC 10419 assessed as bacterial growth inhibition; assay type: functional
Escherichia coli [17] = assay: In vivo antibacterial activity against Escherichia coli NCTC 10419 infected in po dosed CF-mouse assessed as bacterial growth inhibition; assay type: functional, organism-based
Escherichia coli [18] = assay: Antibacterial activity against Escherichia coli DC0 assessed as bacterial growth inhibition by agar dilution method; assay type: functional
Escherichia coli [19] = assay: Antibacterial activity against Escherichia coli DC2 assessed as bacterial growth inhibition by agar dilution method; assay type: functional
[20] = Half life in marmoset at 3 mg/kg, iv; assay type: ADME, organism-based; settings: callitrichinae sp., in vivo
[21] = AUC in marmoset at 3 mg/kg, iv; assay type: ADME, organism-based; design: dose 3 mg/kg, route iv; settings: callitrichinae sp., in vivo
Escherichia coli [22] = assay: Potency index, ratio of ceftazidime MIC to compound IC50 for antibacterial activity against Escherichia coli DC0; assay type: functional
Escherichia coli [23] = assay: Potency index, ratio of ceftazidime MIC to compound IC50 for antibacterial activity against Escherichia coli DC2; assay type: functional
[24] = Protein binding in marmoset plasma; assay type: ADME, cell-free, Callithrix jacchus; settings: read-out: PPB (converted)
Escherichia coli [25] = assay: Antibacterial activity against Escherichia coli assessed as bacterial growth inhibition; assay type: functional
Escherichia coli [26] = assay: Antibacterial activity against Escherichia coli TolC assessed as bacterial growth inhibition; assay type: functional
Escherichia coli [27] = assay: Antibacterial activity against Escherichia coli NIHJ JC-2 assessed as bacterial growth inhibition; assay type: functional
Escherichia coli [28] = assay: Antibacterial activity against Escherichia coli NCDC 134 assessed as bacterial growth inhibition; assay type: functional
Escherichia coli [29] = assay: Antibacterial activity against Escherichia coli assessed as bacterial growth inhibition incubated for 18 hrs by twofold serial dilution assay; assay type: functional
Escherichia coli [30] = assay: Antibacterial activity against Escherichia coli assessed as bacterial growth inhibition by microdilution method; assay type: functional
Escherichia coli [31] = assay: Antibacterial activity against Escherichia coli H560 assessed as bacterial growth inhibition; assay type: functional
Escherichia coli [32] = assay: In vivo antibacterial activity against Escherichia coli H560 infected in po dosed CD-1 mouse assessed as bacterial growth inhibition; assay type: functional; settings: read-out: PD50
Escherichia coli [33] = assay: In vivo antibacterial activity against Escherichia coli H560 infected in sc dosed CD-1 mouse assessed as bacterial growth inhibition; assay type: functional; settings: read-out: PD50
Escherichia coli [34] = assay: Antibacterial activity against Escherichia coli assessed as bacterial growth inhibition measured after 18 hrs by two-fold serial dilution method; assay type: functional
Escherichia coli [35] = assay: Antibacterial activity against Escherichia coli ATCC 25922 infected in iv dosed mouse assessed as bacterial growth inhibition; assay type: functional
Escherichia coli [36] = assay: Antibacterial activity against Escherichia coli ATCC 25922 infected in iv dosed rat assessed as log reduction in bacterial count in lung homogenate at 5 mg/kg; assay type: functional
Escherichia coli [37] = assay: In vivo antibacterial activity against Escherichia coli infected in sc dosed CD-1 mouse assessed as bacterial growth inhibition; assay type: functional; settings: read-out: PD50
Escherichia coli [38] = assay: In vivo antibacterial activity against Escherichia coli infected in po dosed CD-1 mouse assessed as bacterial growth inhibition; assay type: functional; settings: read-out: PD50
Escherichia coli [39] = assay: Antibacterial activity against Escherichia coli ATCC 25922 assessed as bacterial growth inhibition; assay type: functional
Escherichia coli [40] = assay: Antibacterial activity against nalidixic acid resistant Escherichia coli assessed as bacterial growth inhibition; assay type: functional
[41] = Acute toxicity in iv dosed mouse assessed as lethal dose; assay type: organism-based; settings: in vivo
[42] = Escherichia coli, KC-14, po, read-out: ED50

In the case of `O=C(O)c1cn(C2CC2)c2cc(N3CCN([C@@H]4O[C@H](CO)[C@H](O)[C@H](O)[C@H]4O)CC3)c(F)cc2c1=O`, the MIC (Escherichia coli [1]) is reported as no more than 0.03 µg/mL.

For `CC1COc2c(N3CCN(C)CC3)c(F)cc3c(=O)c(C(=O)O)cn1c23` (stereo unspecified) [OFLOXACIN], the zone of inhibition at 5 µg/disc (Escherichia coli [2]) was 22 mm, the ED50 (Escherichia coli [3]) was 0.55 mg/kg and the ED50 (Escherichia coli [3]; [42]) was 1.1 mg/kg. For the same compound, the MIC (Escherichia coli [4]) was 0.1 µg/mL (≈ 0.277 µM) and the MIC (Escherichia coli [5]) was 0.2 µg/mL (≈ 0.553 µM).

For `C[C@H]1COc2c(N3CCN(C)CC3)c(F)cc3c(=O)c(C(=O)O)cn1c23.C[C@H]1COc2c(N3CCN(C)CC3)c(F)cc3c(=O)c(C(=O)O)cn1c23.O` [LEVOFLOXACIN], the MIC (Escherichia coli [6]) was 32 µg/mL, the MIC (Escherichia coli [7]) was 32 µg/mL and the MIC90 (Escherichia coli [8]) was 4 µg/mL. For the same compound, the MIC90 (Escherichia coli [9]) was 32 µg/mL.

`CCn1cc(C(=O)O)c(=O)c2cc(F)c(N3CCN(CC(=O)c4ccoc4)CC3)cc21` showed an MIC (Escherichia coli [10]) of 0.049 µg/mL (≈ 0.115 µM).

Compound `Cc1nc(N2CCOCC2)c([N+](=O)[O-])n1CC(O)CNC1CCN(c2c(F)cc3c(=O)c(C(=O)O)cn(C4CC4)c3c2Cl)C1` (stereo unspecified) has an MIC (Escherichia coli [11]) of 0.5 µg/mL (≈ 0.789 µM), a Ratio (Escherichia coli [12]) of 2 and a Ratio (Escherichia coli [13]) of 2. For the same compound, the Ratio (Escherichia coli [14]) was 2 and the Ratio (Escherichia coli [15]) was 2.

`COc1cc(Cc2cnc(/N=C3\C(=O)N(CN4CCN(c5cc6c(cc5F)c(=O)c(C(=O)O)cn6C5CC5)CC4)c4ccc(C)cc43)nc2N)cc(OC)c1OC` gave an MIC (Escherichia coli [16]) of 0.0002 µg/mL (≈ 0.000257 µM) and an EC50 (Escherichia coli [17]) of 0.62 mg/kg.

In the case of `CCn1cc(C(=O)NCC2=C(C(=O)O)N3C(=O)[C@@H](NC(=O)/C(=N\OC(C)(C)C(=O)O)c4csc(N)n4)C3SC2)c(=O)c2cc(O)c(O)cc21` (stereo in doubt), the MIC (Escherichia coli [18]) is reported as 0.008 µg/mL (≈ 0.0112 µM), the MIC (Escherichia coli [19]) is reported as 0.008 µg/mL (≈ 0.0112 µM) and the half-life [20] is reported as 3.47 h. The AUC [21] was 238 µg·h/mL, the Ratio (Escherichia coli [22]) was 8 and the Ratio (Escherichia coli [23]) was 8. For the same compound, the fraction unbound [24] was 0.008.

`O=C(O)c1cn(C2CC2)c2cc(N3CCNCC3)c(F)cc2c1=O` [CIPROFLOXACIN] showed an MIC (Escherichia coli [25]) of 0.025 µg/mL (≈ 0.0754 µM), an ED50 (Escherichia coli [3]; [42]) of 0.45 mg/kg and an MIC (Escherichia coli [26]) of 8.21 µg/mL (≈ 24.8 µM). The MIC (Escherichia coli [27]) was 0.0063 µg/mL (≈ 0.019 µM), the MIC (Escherichia coli [6]) was 64 µg/mL (≈ 193 µM) and the MIC (Escherichia coli [7]) was 64 µg/mL (≈ 193 µM). For the same compound, the MIC (Escherichia coli [16]) was 0.0011 µg/mL (≈ 0.00332 µM), the MIC (Escherichia coli [28]) was 40 µg/mL (≈ 121 µM) and the MIC (Escherichia coli [29]) was no more than 0.015 µg/mL. It also gave an MIC (Escherichia coli [30]) of no more than 0.03 µg/mL, an EC50 (Escherichia coli [17]) of 1.25 mg/kg and an MIC (Escherichia coli [31]) of no more than 0.003 µg/mL. For the same compound, the ED50 (Escherichia coli [32]) was 1 mg/kg, the ED50 (Escherichia coli [33]) was 0.3 mg/kg and the MIC90 (Escherichia coli [8]) was 4 µg/mL (≈ 12.1 µM).

In the case of `CO/N=C1\CN(c2nc3c(cc2F)c(=O)c(C(=O)O)cn3C2CC2)CC1CN` (stereo unspecified) [GEMIFLOXACIN], the MIC90 (Escherichia coli [9]) is reported as 32 µg/mL (≈ 82.2 µM).

In the case of `CC(C)(CF)n1cc(C(=O)O)c(=O)c2cc(F)c(N3CC[C@H](N)C3)cc21`, the MIC (Escherichia coli [34]) is reported as 0.002 µg/mL (≈ 0.00547 µM).

For `CN1CCN(c2cc3c(cc2F)c(=O)c(C(=O)O)cn3-c2ccc(OP(=O)(O)O)cc2)CC1`, the ED50 (Escherichia coli [35]) was 0.74 mg/kg and the “log(activity)” value (Escherichia coli [36]) was 2.

For `O=C(O)c1cn(-c2ccc(F)cc2F)c2nc(N3CCCC3)c(F)cc2c1=O`, the MIC (Escherichia coli [31]) was 0.025 µg/mL (≈ 0.0642 µM), the ED50 (Escherichia coli [32]) was 0.5 mg/kg and the ED50 (Escherichia coli [33]) was 0.2 mg/kg.

Work on `CCn1cc(C(=O)O)c(=O)c2cc(F)c(N3CCC4(CCN(C)C4)C3)cc21` (stereo unspecified) yielded an MIC (Escherichia coli [25]) of 0.006 µg/mL (≈ 0.0161 µM), an ED50 (Escherichia coli [37]) of 8.4 mg/kg and an ED50 (Escherichia coli [38]) of 3.4 mg/kg.

With `C[C@@H](O)[C@H]1C(=O)N2C(C(=O)O)=C(COC(=O)N[C@H]3CCN(c4c(F)cc5c(=O)c(C(=O)O)cn(C6CC6)c5c4F)C3)S[C@H]12` the MIC (Escherichia coli [39]) was no more than 0.06 µg/mL.

`O=C(O)c1cn(C2CC2)c2cc(N3CCN([C@@H]4O[C@H](CO)[C@@H](O)[C@H](O)[C@H]4O)CC3)c(F)cc2c1=O` gave an MIC (Escherichia coli [1]) of no more than 0.03 µg/mL.

In the case of `CN1CCN(c2c(F)cc3c(=O)c(C(=O)O)c4scc5n4c3c2OC5)CC1`, the MIC (Escherichia coli [40]) is reported as 0.2 µg/mL (≈ 0.514 µM), the ED50 (Escherichia coli [3]; [42]) is reported as 1.01 mg/kg and the LD50 [41] is reported as 237 mg/kg.

With `C[C@@H](O)[C@H]1C(=O)N2C(C(=O)O)=C(COC(=O)N3CCN(c4cc5c(cc4F)c(=O)c(C(=O)O)cn5C4CC4)CC3)S[C@H]12` the MIC (Escherichia coli [39]) was no more than 0.06 µg/mL.
